According to US8921320B2, “Targeted osmotic lysis of cancer cells” (Board of Supervisors of Louisiana State University and …, priority 2011, dated 2014):
“Also recorded” adds a separate entry of the source. Read-outs that look alike come from different tables or passages of the source.

Assays:
[1] = tested on: MDA-MB-231 breast cancer cells; assay type: cell-based
Protocol: The effectiveness of TOL has been tested using an in vitro model for breast cancer. MDA-MB-231 breast cancer cells were cultured to complete confluency in 96-well plates. These breast cancer cells are known to over-express VGSCs by 1400-fold. These cells were exposed to Dulbecco's modified Eagle's medium (DMEM), or the cardiac glycoside drugs (known sodium pump inhibitors) ouabain (10 pM-100 nM; Sigma Chemical Co., St. Louis, Mo.) or digitoxin (100 pM-1 μM; Sigma) dissolved in DMEM for 30 min. After exposure to the sodium pump inhibitors, an electric current (0 V, 100 mV, or 1 V DC) was passed across the cells using an anode and a cathode placed touching the bottom of each well or an etched circuit in the bottom of the plate. The electric current was generated using a Grass Model SD9 stimulator (Grass Instruments, Quincy, Mass.) through platinum wire electrodes.
Initially we cultured MDA-MB-231 (ATCC, Manassas, Va., cat #HTB-26) breast cancer cells to complete confluency in 96-well plates. These cells over-express VGSCs by 100-fold. […] An electric current (0 V, 100 mV, or 1 V DC) was passed across the cells by means of an anode and a cathode placed touching the bottom of each well as in Example 1.

[2] = tested on: 3LL (non-small cell lung cancer); assay: Time to lysis of cultured cancer cells (drug + electrical stimulation); assay type: cell-based; conditions: 2 V DC, 200 pulses per second, 5 min limit
Description: (§1) We also used two cardiac glycoside drugs that are currently FDA-approved for clinical use, ouabain and digoxin, for in vitro lysis of multiple lines of carcinoma. […] Cell lines were: MDA-MB-231 (breast cancer); MCF-7 (breast cancer; ATCC# HTB-22); LNCaP (prostate cancer; ATCC# CRL-1740); DU145 (prostate cancer; ATCC# HTB-81); MCA-38 (colon cancer; from Dr. Augusto Ochoa); A549 (non-small cell lung cancer; ATCC# CCL-185); and 3LL (non-small cell lung cancer; from Dr. Augusto Ochoa, Louisiana State University, New Orleans, La.). Cells were plated in 35 mm diameter culture dishes in Dulbecco's Modified Eagle's Medium (DMEM, Gibco) supplemented with 4 mM L-glutamine, 1 mM sodium pyruvate and 10 μM insulin for 18-24 hr. […] A 2 V DC current, 200 pulses per second was passed across individual cells using a Grass Model SD9 stimulator (Grass Instruments, Quincy, Mass.) through platinum wire electrodes held in place with a David Kopf Instrument micromanipulator (Tarzana, Calif.), and the time to lysis was measured. Video recordings of representative experiments were prepared digitally using a Canon Vixia HFM400 camera attached to Leica DM IL microscope, and are available upon request. […] All of the cancer cells lysed, with the time to lysis faster for the cells with the largest known expression of VGSCs.

DU145 (prostate cancer) = assay: as above; assay type: cell-based; conditions: 2 V DC, 200 pulses per second, 5 min limit
Description: as §1

LNCaP (prostate cancer) = assay: as above; assay type: cell-based; conditions: 2 V DC, 200 pulses per second, 5 min limit
Description: as §1

MCA-38 (colon cancer) = assay: as above; assay type: cell-based; conditions: 2 V DC, 200 pulses per second, 5 min limit
Description: as §1

[3] = tested on: MDA-MB-231 (breast cancer); assay: as above; assay type: cell-based; conditions: 2 V DC, 200 pulses per second, 5 min limit
Description: as §1

[4] = tested on: A549 (non-small cell lung cancer); assay: as above; assay type: cell-based; conditions: 100 nM ouabain, 2 V DC, 200 pulses per second, 5 min limit
Protocol: (§2) Cell lines were: MDA-MB-231 (breast cancer); MCF-7 (breast cancer; ATCC# HTB-22); LNCaP (prostate cancer; ATCC# CRL-1740); DU145 (prostate cancer; ATCC# HTB-81); MCA-38 (colon cancer; from Dr. Augusto Ochoa); A549 (non-small cell lung cancer; ATCC# CCL-185); and 3LL (non-small cell lung cancer; from Dr. Augusto Ochoa, Louisiana State University, New Orleans, La.). Cells were plated in 35 mm diameter culture dishes in Dulbecco's Modified Eagle's Medium (DMEM, Gibco) supplemented with 4 mM L-glutamine, 1 mM sodium pyruvate and 10 μM insulin for 18-24 hr. […] A 2 V DC current, 200 pulses per second was passed across individual cells using a Grass Model SD9 stimulator (Grass Instruments, Quincy, Mass.) through platinum wire electrodes held in place with a David Kopf Instrument micromanipulator (Tarzana, Calif.), and the time to lysis was measured. Video recordings of representative experiments were prepared digitally using a Canon Vixia HFM400 camera attached to Leica DM IL microscope, and are available upon request.

MCF-7 (breast cancer) = assay: as above; assay type: cell-based; conditions: 100 nM ouabain, 2 V DC, 200 pulses per second, 5 min limit
Protocol: as §2

[5] = tested on: MDA-MB-231 breast cancer cells; assay: cells; assay type: cell-based; conditions: alamar blue added after 1 hr, read 4 hr later
Protocol: The effect of the combination of ouabain (a sodium pump inhibitor) and veratridine (a sodium […]) on viability of cultured MDA-MB-231 and MCF-7 breast cancer cells was assessed. The former cells over-express VGSCs by more than 1000-fold, whereas the latter cells over-express VGSCs by 100-fold (24). MDA-MB-231 cells were cultured in DMEM, whereas MCF-7 cells were cultured in DMEM+10 μM insulin. After centrifugation, both cell lines were re-suspended in DMEM+10 μM insulin to assure normal functioning of Na^+, K^+-ATPase, and approximately 5000 cells were added to each well in a 96-well plate in a volume of 100 μl. After 18 hr, the media was aspirated, and the cells were treated with 100 μl DMEM+10 μM insulin (“media”) alone, media+100 nM ouabain, media+30 μM veratridine, or media+100 nM ouabain+30 μM veratridine. After 1 hr, […] alamar blue was added to each well, and cell viability determined 4 hr after this addition. All determinations were obtained in quadruplicate, and the experiment repeated three times. […] Veratridine alone reduced viability of MDL-MB-231 cells by 15% (FIG. 1) compared to media alone-treated cells. In this initial experiment, ouabain combined with veratridine produced a 30% reduction in cell viability. In MCF-7 cells, none of the treatments affected cell viability (Data not shown). […]

MDA-MB-231 tumors [6] = assay: In vivo TOL in breast cancer xenografts, tumor histology (hematoxylin and eosin); parameters: species or system nude (J-NU) mice
Protocol: As an in vivo model of cancer, MDA-MB-231 cells were suspended in matrigel and injected subcutaneously into the backs of 5 nude (J-NU) mice. Each mouse developed 0.75-1.2 cm tumors in 3-5 weeks. The mice were then injected subcutaneously with 10 mg/kg ouabain or saline. After 30 min, the mice were anesthetized with 4% isoflurane, and the tumors exposed through a small incision in the skin. An anode and a cathode were inserted into each tumor, and a train of 120 1 V DC pulses (10 msec, 2 Hz for 1 min) was delivered through the anode and cathode as discussed above. A total of 11 tumors were tested. Three tumors were from mice treated with ouabain and electrically stimulated (O-ES experimental). Of the rest, two were from a mouse treated with saline and not electrically stimulated (S-NS control), three were from mice treated with ouabain but not electrically stimulated (O-NS control), and three were from mice treated with saline and electrically stimulated (S-ES control). The electrical stimulation was repeated 15 and 30 min later. One day later, mice were sacrificed with an overdose of Nat pentobarbital, perfused with 4% buffered paraformaldehyde, and the tumors removed. The tumors were sectioned at 5 μm and stained with hematoxylin and eosin. […] The other two mice in the O-ES group had tumors that were not highly vascularized, and thus the ouabain could not efficiently distribute to the tumor cells.
As an in vivo model of cancer, we injected 4 million MDA-MB-231 cells, suspended in matrigel, subcutaneously into the backs of 5 nude (J-NU) mice. Each mouse developed 0.75-1.2 cm tumors in 3-5 weeks. The mice were injected subcutaneously with 10 mg/kg ouabain or saline and then after 30 min anesthetized with 4% isoflurane. The tumors of the mice were exposed through a small incision in the skin. An anode and a cathode were inserted into each tumor, and a train of 120 1 V DC pulses (10 msec, 2 pulses per second for 1 min) using the Grass SD9 stimulator was delivered through a copper anode and cathode. Some controls received no stimulation. A total of 11 tumors were tested. Three tumors were from mice treated with 10 mg/kg s.c. ouabain and electrically stimulated (O-ES experimental). […]
This experiment was repeated using 10 mice (2 per control group and 4 in the experimental group.) Four million MDA-MB-231 cells suspended in 50% matrigel were injected s.c. in J/Nu mice, and tumors allowed to grow until visibly vascularized (reddish in appearance.) Stimulation parameters were 10 V DC, 1 msec pulses @ 200 pulses per second. […] One day later, animals were sacrificed, perfused, tumors removed, and prepared for hematoxylin and eosin staining Stained sections from each of the tumors were evaluated by a trained histologist.

[7] = tested on: muscle, peripheral nerves, heart, and brain; assay type: in vivo, J/Nu mice
Protocol: As an in vivo model of cancer, MDA-MB-231 cells were suspended in matrigel and injected subcutaneously into the backs of 5 nude (J-NU) mice. Each mouse developed 0.75-1.2 cm tumors in 3-5 weeks. The mice were then injected subcutaneously with 10 mg/kg ouabain or saline. After 30 min, the mice were anesthetized with 4% isoflurane, and the tumors exposed through a small incision in the skin. An anode and a cathode were inserted into each tumor, and a train of 120 1 V DC pulses (10 msec, 2 Hz for 1 min) was delivered through the anode and cathode as discussed above. A total of 11 tumors were tested. Three tumors were from mice treated with ouabain and electrically stimulated (O-ES experimental). Of the rest, two were from a mouse treated with saline and not electrically stimulated (S-NS control), three were from mice treated with ouabain but not electrically stimulated (O-NS control), and three were from mice treated with saline and electrically stimulated (S-ES control). The electrical stimulation was repeated 15 and 30 min later. One day later, mice were sacrificed with an overdose of Nat pentobarbital, perfused with 4% buffered paraformaldehyde, and the tumors removed. The tumors were sectioned at 5 μm and stained with hematoxylin and eosin. […]

MDA-MB-231 tumors [8] = assay: Tumor growth following a single TOL treatment; assay type: in vivo, J/Nu mice; conditions: single treatment Day 0: ouabain 10 mg/kg + 2×1 min electrical stimulation; cross-sectional area followed three weeks; p<0.01
Protocol: When vascularized tumors became apparent, mice were divided into 4 treatment groups: Saline-No stimulation; Saline-Stimulation (2×1 min electrical stimulation); Ouabain (10 mg/kg)-No stimulation; and Ouabain (10 mg/kg)-Stimulation (2×1 min electrical stimulation). Only a single treatment was given for each treatment group on Day 0 of FIG. 2. Tumor cross-sectional area was then measured with calipers every-other day for three weeks. The tumor growth was expressed as a percent pre-treatment size and plotted against time.

`C[C@@H]1O[C@@H](O[C@H]2C[C@@H](O)[C@]3(CO)[C@H]4[C@H](O)C[C@]5(C)[C@@H](C6=CC(=O)OC6)CC[C@]5(O)[C@@H]4CC[C@]3(O)C2)[C@H](O)[C@H](O)[C@H]1O` [ouabain] was tested, and the “cancer cell death in wells” value ([1]; ≧1 nM ouabain 30 min, then 100 mV or 1 V DC electric current, 6 of 24 wells (ouabain or digoxin)) was “every cancer cell died; also recorded: all cancer cells died”, the “Mean time-to-lysis ± SEM, Ouabain + Stimulation” value ([2]; 100 nM ouabain) was 115.9 ± 3.33 s and the “Mean time-to-lysis ± SEM, Ouabain + Stimulation” value (DU145 (prostate cancer); 100 nM ouabain) was 81.6 ± 3.96 s. The “Mean time-to-lysis ± SEM, Ouabain + Stimulation” value (LNCaP (prostate cancer); 100 nM ouabain) was 143.1 ± 5.78 s, the “Mean time-to-lysis ± SEM, Ouabain + Stimulation” value (MCA-38 (colon cancer); 100 nM ouabain) was 74.0 ± 1.0 s and the “Mean time-to-lysis ± SEM, Ouabain + Stimulation” value ([3]; 100 nM ouabain 15-45 min) was 69.3 ± 4.82 s. For the same molecule, the “Mean time-to-lysis ± SEM, Ouabain + Stimulation” value [4] was 149.9 ± 11.70 s, the “Mean time-to-lysis ± SEM, Ouabain + Stimulation” value (MCF-7 (breast cancer)) was 170.5 ± 15.35 s and the “change in cell viability compared to media-only controls” value ([5]; 100 nM ouabain alone) was “no decrease in cell viability”. For the same molecule, the “lysis in tumors that were not highly vascularized” value (MDA-MB-231 tumors [6]; 10 mg/kg s.c. ouabain + electrical stimulation (1 V DC), the other two mice of the O-ES group) was “no lysis was seen”, the “tumor cell death after treatment” value (MDA-MB-231 tumors [6]; 10 mg/kg s.c. ouabain + electrical stimulation (120 1 V DC pulses, repeated 15 and 30 min later), one of three O-ES tumors, one day later) was 80% and the “cell lysis in tumors, ouabain without electrical stimulation (O-NS control)” value (MDA-MB-231 tumors [6]; 10 mg/kg s.c. ouabain, no stimulation, three tumors, one day later) was “None of the tumors in any of the other three treatments showed any sign of cell lysis; also recorded: None of the tumors in any of the three control treatments showed any sign of cell lysis”. The “lysis in control tumors (incl. ouabain without stimulation)” value (MDA-MB-231 tumors [6]; repeat experiment, 10 mice, 2 per control group, 10 mg/kg s.c. ouabain) was “none of the controls showed any sign of lysis”, the “lysis in healthy muscle, peripheral nerves, heart, and brain” value ([7]; 10 mg/kg ouabain s.c., tissues electrically stimulated after 30 min, one day later) was “None of these tissues showed signs of lysis” and the “cell death in normal muscle taken from the base of the tumor” value ([7]; 10 mg/kg s.c. ouabain + electrical stimulation (1 V DC), same mouse as the tumor with 80% cell death) was “no sign of cell death”. For the same molecule, the “tumor size smaller than in the three other groups” value (MDA-MB-231 tumors [8]) was 70%.

For `COc1ccc(C(=O)O[C@H]2CC[C@@]3(C)[C@@H]4CC[C@H]5[C@]6(O)C[C@H](O)[C@@]7(O)[C@@H](CN8C[C@@H](C)CC[C@H]8[C@@]7(C)O)[C@]6(O)C[C@@]53O[C@]24O)cc1OC` [veratridine], the cytotoxicity at 30 µM ([5]; Homo sapiens, 30 μM veratridine alone, read-out: reduction in cell viability compared to media alone) was 15%.

For `C[C@H]1O[C@@H](O[C@H]2[C@@H](O)C[C@H](O[C@H]3[C@@H](O)C[C@H](O[C@H]4CC[C@@]5(C)[C@H](CC[C@@H]6[C@@H]5C[C@@H](O)[C@]5(C)[C@@H](C7=CC(=O)OC7)CC[C@]65O)C4)O[C@@H]3C)O[C@@H]2C)C[C@H](O)[C@@H]1O` [digoxin], the “cancer cell death in wells” value [1] was “every cancer cell died; also recorded: all cancer cells died”, the “Mean time-to-lysis ± SEM, Digoxin + Stimulation” value ([2]; 1 μM digoxin) was 163.75 ± 8.27 s and the “Mean time-to-lysis ± SEM, Digoxin + Stimulation” value (DU145 (prostate cancer); 1 μM digoxin) was 111.3 ± 9.7 s. The “Mean time-to-lysis ± SEM, Digoxin + Stimulation” value (LNCaP (prostate cancer); 1 μM digoxin) was 122.9 ± 3.13 s, the “Mean time-to-lysis ± SEM, Digoxin + Stimulation” value (MCA-38 (colon cancer); 1 μM digoxin) was 122.7 ± 9.02 s and the “Mean time-to-lysis ± SEM, Digoxin + Stimulation” value ([3]; 1 μM digoxin 15-45 min) was 68.39 ± 7.31 s.
